Measured values published in ChEMBL document CHEMBL4699536, “Discovery of Natural Compounds for Cardiac Fibrosis by a Transcriptome-Based Functional Gene Module Reference Approach” (J Nat Prod, 2020).
Activity calls are given as the source filed them.

What was measured:
Assay type in all cases: functional, organism-based
Settings in all cases: time 30.0 day
Rattus norvegicus [1] = assay: Cardioprotective activity in Sprague-Dawley rat model of LAD coronary artery ligation-induced cardiac fibrosis assessed as decrease in collagen in heart at 10 mg/kg, po administered via gavage for 30 days by Masson trichrome staining based microscopic method
Rattus norvegicus [2] = assay: Cardioprotective activity in Sprague-Dawley rat model of LAD coronary artery ligation-induced cardiac fibrosis assessed as decrease in myocardial necrotic area at 10 mg/kg, po administered via gavage for 30 days
Rattus norvegicus [3] = assay: Cardioprotective activity in Sprague-Dawley rat model of LAD coronary artery ligation-induced cardiac fibrosis assessed as decrease in Lox mRNA expression at 10 mg/kg, po administered via gavage for 30 days by RT2 Profiler PCR Array
Rattus norvegicus [4] = assay: Cardioprotective activity in Sprague-Dawley rat model of LAD coronary artery ligation-induced cardiac fibrosis assessed as increase in fractional shortening at 10 mg/kg, po administered via gavage for 30 days by echocardiography
Rattus norvegicus [5] = assay: Cardioprotective activity in Sprague-Dawley rat model of LAD coronary artery ligation-induced cardiac fibrosis assessed as increase in ejection fraction at 10 mg/kg, po administered via gavage for 30 days by echocardiography
Rattus norvegicus [6] = assay: Cardioprotective activity in Sprague-Dawley rat model of LAD coronary artery ligation-induced cardiac fibrosis assessed as decrease in Col3a1 mRNA expression at 10 mg/kg, po administered via gavage for 30 days by RT2 Profiler PCR Array
Rattus norvegicus [7] = assay: Cardioprotective activity in Sprague-Dawley rat model of LAD coronary artery ligation-induced cardiac fibrosis assessed as decrease in heart weight ratio at 10 mg/kg, po administered via gavage for 30 days
Rattus norvegicus [8] = assay: Cardioprotective activity in Sprague-Dawley rat model of LAD coronary artery ligation-induced cardiac fibrosis assessed as decrease in CTGF mRNA expression at 10 mg/kg, po administered via gavage for 30 days by RT2 Profiler PCR Array
Rattus norvegicus [9] = assay: Cardioprotective activity in Sprague-Dawley rat model of LAD coronary artery ligation-induced cardiac fibrosis assessed as increase in organized myocardial cells at 10 mg/kg, po administered via gavage for 30 days by H and E staining based optical microscopic method
Rattus norvegicus [10] = assay: Cardioprotective activity in Sprague-Dawley rat model of LAD coronary artery ligation-induced cardiac fibrosis assessed as reduction in infarct survival area of myocardial cells at 10 mg/kg, po administered via gavage for 30 days by H and E staining based optical microscopic method
Rattus norvegicus [11] = assay: Cardioprotective activity in Sprague-Dawley rat model of LAD coronary artery ligation-induced cardiac fibrosis assessed as increase in left ventricular function by measuring reduction in LAD-induced anterior wall weakened at 10 mg/kg, po administered via gavage for 30 days by echocardiography
Rattus norvegicus [12] = assay: Cardioprotective activity in Sprague-Dawley rat model of LAD coronary artery ligation-induced cardiac fibrosis assessed as decrease in collagen volume fraction at 10 mg/kg, po administered via gavage for 30 days by Masson trichrome staining based microscopic method
Rattus norvegicus [13] = assay: Cardioprotective activity in Sprague-Dawley rat model of LAD coronary artery ligation-induced cardiac fibrosis assessed as reduction in infarct survival area of myocardial cells at 2.86 mg/kg, po administered via gavage for 30 days by H and E staining based optical microscopic method
Rattus norvegicus [14] = assay: Cardioprotective activity in Sprague-Dawley rat model of LAD coronary artery ligation-induced cardiac fibrosis assessed as decrease in collagen in heart at 2.86 mg/kg, po administered via gavage for 30 days by Masson trichrome staining based microscopic method
Rattus norvegicus [15] = assay: Cardioprotective activity in Sprague-Dawley rat model of LAD coronary artery ligation-induced cardiac fibrosis assessed as increase in left ventricular function by measuring reduction in LAD-induced anterior wall weakened at 2.86 mg/kg, po administered via gavage for 30 days by echocardiography
Rattus norvegicus [16] = assay: Cardioprotective activity in Sprague-Dawley rat model of LAD coronary artery ligation-induced cardiac fibrosis assessed as increase in fractional shortening at 2.86 mg/kg, po administered via gavage for 30 days by echocardiography
Rattus norvegicus [17] = assay: Cardioprotective activity in Sprague-Dawley rat model of LAD coronary artery ligation-induced cardiac fibrosis assessed as decrease in myocardial necrotic area at 2.86 mg/kg, po administered via gavage for 30 days
Rattus norvegicus [18] = assay: Cardioprotective activity in Sprague-Dawley rat model of LAD coronary artery ligation-induced cardiac fibrosis assessed as increase in ejection fraction at 2.86 mg/kg, po administered via gavage for 30 days by echocardiography
Rattus norvegicus [19] = assay: Cardioprotective activity in Sprague-Dawley rat model of LAD coronary artery ligation-induced cardiac fibrosis assessed as increase in organized myocardial cells at 2.86 mg/kg, po administered via gavage for 30 days by H and E staining based optical microscopic method
Rattus norvegicus [20] = assay: Cardioprotective activity in Sprague-Dawley rat model of LAD coronary artery ligation-induced cardiac fibrosis assessed as decrease in collagen volume fraction at 2.86 mg/kg, po administered via gavage for 30 days by Masson trichrome staining based microscopic method
Rattus norvegicus [21] = assay: Cardioprotective activity in Sprague-Dawley rat model of LAD coronary artery ligation-induced cardiac fibrosis assessed as decrease in heart weight ratio at 2.86 mg/kg, po administered via gavage for 30 days

Measured: Activity

COc1cc2c(c(OC)c1OC)-c1c(cc3c(c1OC)OCO3)C[C@H](C)[C@](C)(O)[C@H]2OC(=O)c1ccccc1
not listed: Rattus norvegicus [13] | Rattus norvegicus [14] | Rattus norvegicus [15] | Rattus norvegicus [16] | Rattus norvegicus [17] | Rattus norvegicus [18] | Rattus norvegicus [19] | Rattus norvegicus [20] | Rattus norvegicus [21]
active: all other assays above

CCOC(=O)[C@H](CCc1ccccc1)N[C@@H](C)C(=O)N1CCC[C@H]1C(=O)O
active: Rattus norvegicus [13] | Rattus norvegicus [14] | Rattus norvegicus [15] | Rattus norvegicus [16] | Rattus norvegicus [17] | Rattus norvegicus [18] | Rattus norvegicus [19] | Rattus norvegicus [20] | Rattus norvegicus [21]
